In brackets after ≈: the same amount, converted by molar mass.
How the values were obtained:
hTRPM8 = biological target: T1, hTRPM8 (Homo sapiens, UniProt Q7Z2W7); test: hTRPM8 cell based agonist assay (section 1.1); conditions: mammalian cell line stably expressing TRPM8
T1 construct: expressed in transfected cells
Description: The present compounds are useful as modulators of TRPM8. The activity of TRPM8 can be readily monitored in cell based assays using fluorescent calcium-sensitive dyes, membrane potential dyes, or sodium-sensitive dyes. The activity of TRPM8 can also be monitored with electrophysiological set-ups, such as patch-clamping and two-electrode voltage clamping. A mammalian cell line derivative which stably expresses TRPM8 was used in biological assays in association with testing the present compounds with cool-tasting or -feeling properties (Servant et al. US 2007/0259354 A1 and references cited therein). Typical compound concentrations tested were 100 μM, 50 μM, 10 μM, 1 μM, and 0.5 μM. The present compounds have shown strong activity as agonists of hTRPM8. Assay results for compounds are illustrated in Table 1 below. Specifically, the Compounds listed in Table 1.1, e.g., Compounds 1.A1 to Compounds 1.A9 are the specific compounds as described herein. For example, Compounds 1.A1 is Example 1.1.

panelists = test: Sensory study, cooling line scale vs WS-3 (section 1.2); assay type: in vivo, human
Protocol: Three typical sensory studies are described below each followed by a table summarizing sensory results of selected compounds of the invention (Tables 1.2 to 1.4).
All samples made with Low Sodium Buffer (LSB) pH ˜7.1 and contain 0.1% ethanol.
Compounds are rated on a 15 point line scale where 45 μM WS-3 (N-Ethyl-p-menthane-3-carboxamide) is ranked as a 5 in cool intensity. In most cases our compounds are tested to determine at what concentration the cooling intensity is equivalent to 45 μM WS-3. In each test, the panelist is presented with a 0 μM control sample, a 45 μM WS-3 control sample and the experimental compound sample and asked to rate the cooling intensity of each sample. Panelists are also asked to rate bitterness. In the table below there was no significant bitterness detected unless otherwise noted. Also, in the table below, n represents the number of tests completed for a given experiment (#panelists×#repetitions).

Solubility in LSB = assay type: physicochemical; conditions: Low Sodium Buffer (LSB), aqueous buffer

T1 sequence (Q7Z2W7 whole entry): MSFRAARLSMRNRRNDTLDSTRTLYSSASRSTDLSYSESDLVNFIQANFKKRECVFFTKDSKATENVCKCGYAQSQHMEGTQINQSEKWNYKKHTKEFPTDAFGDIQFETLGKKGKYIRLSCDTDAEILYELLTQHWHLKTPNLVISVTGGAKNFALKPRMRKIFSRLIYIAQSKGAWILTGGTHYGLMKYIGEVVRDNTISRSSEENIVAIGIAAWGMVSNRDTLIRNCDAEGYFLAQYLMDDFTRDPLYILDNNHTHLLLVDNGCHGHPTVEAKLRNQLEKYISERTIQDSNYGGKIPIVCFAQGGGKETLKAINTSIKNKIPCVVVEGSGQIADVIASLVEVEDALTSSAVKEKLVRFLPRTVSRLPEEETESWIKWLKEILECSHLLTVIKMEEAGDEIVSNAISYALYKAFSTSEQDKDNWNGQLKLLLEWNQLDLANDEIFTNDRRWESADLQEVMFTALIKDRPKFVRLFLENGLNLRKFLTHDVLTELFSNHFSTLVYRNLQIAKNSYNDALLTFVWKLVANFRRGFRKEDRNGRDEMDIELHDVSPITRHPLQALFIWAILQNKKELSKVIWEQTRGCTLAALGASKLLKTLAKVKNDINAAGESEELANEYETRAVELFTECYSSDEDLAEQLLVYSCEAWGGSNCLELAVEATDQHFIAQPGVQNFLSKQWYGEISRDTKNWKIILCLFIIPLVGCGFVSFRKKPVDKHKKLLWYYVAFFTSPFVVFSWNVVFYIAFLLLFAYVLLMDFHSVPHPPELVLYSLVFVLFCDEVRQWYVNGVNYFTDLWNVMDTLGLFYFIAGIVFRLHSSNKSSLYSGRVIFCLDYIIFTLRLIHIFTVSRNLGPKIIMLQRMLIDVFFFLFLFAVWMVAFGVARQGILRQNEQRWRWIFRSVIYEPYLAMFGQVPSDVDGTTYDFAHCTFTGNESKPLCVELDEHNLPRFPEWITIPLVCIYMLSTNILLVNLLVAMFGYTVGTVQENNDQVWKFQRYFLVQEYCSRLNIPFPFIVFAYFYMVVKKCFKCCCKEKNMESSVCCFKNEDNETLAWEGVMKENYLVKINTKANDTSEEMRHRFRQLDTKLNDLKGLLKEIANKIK

CC1=NN(CC(=O)c2ccccc2)C(=O)C1(C)C1CCCCC1 (centres unmarked) [Example 1.1, 4-cyclohexyl-3,4-dimethyl-1-(2-oxo-2-phenylethyl)-1H-pyrazol-5(4H)-one]
EC50 (hTRPM8): 34 nM
hTRPM8 EC50 Ratio (hTRPM8): 100.0
Average Cooling (panelists; Table 1.2, 5 μM, 15 point line scale, n = 30): 4.7
Sensory Results (panelists; compound concentration compared in cooling intensity with 45 uM WS-3, LSB pH ~7.1, 0.1% ethanol): 5 uM~45 uM WS-3
solubility (Solubility in LSB): 337 µM (≈ 105 µg/mL)

From patent US11028052B2, “Compounds useful as modulators of TRPM8” (Firmenich Incorporated, priority 2013, dated 2021)
